Earlier results in US8288413B2, “Benzimidazolones which have activity at M1 receptor” (Glaxo Group Limited, priority 2005, dated 2012).

What was measured:
[1] = tested on: unilateral 6-OH-DA lesioned rats
[2] = in vivo
c-fos expression = conditions: rats

EPS liability (monkeys): without EPS liability
Compound: CCCCCCOc1nsnc1C1=CCCN(C)C1 [xanomeline]
A9 dopamine cell firing (dopamine cell firing; A9): not A9
A10 dopamine cell firing (dopamine cell firing; A10): inhibit
dopamine agonist driven turning [1]: reverses
amphetamine induced locomotion (rats): reverses
apomorphine induced climbing (mice): reverses
conditioned avoidance [2]: inhibit
c-fos expression in prefrontal cortex and nucleus accumbens (c-fos expression): induces
c-fos expression in striatum (c-fos expression): not in striatum
psychotic symptoms such as suspiciousness, hallucinations and delusions (Alzheimer's patients; Alzheimer's patients): reduce
side effects (Alzheimer's patients; clinical use): dose-limiting peripheral cholinergic side effects
amphetamine-induced motor unrest (monkeys): reverses
